Results: ChEMBL document CHEMBL1142296, “BACE1 inhibitors: optimization by replacing the P1' residue with non-acidic moiety” (Bioorg Med Chem Lett, 2008)

Assays:
Beta-secretase 1 [1] = molecular target: T1, Beta-secretase 1 (Homo sapiens, UniProt P56817); experiment: Inhibition of human recombinant BACE1 at 2 uM
Beta-secretase 1 [2] = molecular target: T1, Beta-secretase 1; experiment: Inhibition of human recombinant BACE1 at 0.2 uM
Beta-secretase 1 [3] = molecular target: T1, Beta-secretase 1; experiment: Inhibition of human recombinant BACE1

T1 sequence (P56817 whole entry): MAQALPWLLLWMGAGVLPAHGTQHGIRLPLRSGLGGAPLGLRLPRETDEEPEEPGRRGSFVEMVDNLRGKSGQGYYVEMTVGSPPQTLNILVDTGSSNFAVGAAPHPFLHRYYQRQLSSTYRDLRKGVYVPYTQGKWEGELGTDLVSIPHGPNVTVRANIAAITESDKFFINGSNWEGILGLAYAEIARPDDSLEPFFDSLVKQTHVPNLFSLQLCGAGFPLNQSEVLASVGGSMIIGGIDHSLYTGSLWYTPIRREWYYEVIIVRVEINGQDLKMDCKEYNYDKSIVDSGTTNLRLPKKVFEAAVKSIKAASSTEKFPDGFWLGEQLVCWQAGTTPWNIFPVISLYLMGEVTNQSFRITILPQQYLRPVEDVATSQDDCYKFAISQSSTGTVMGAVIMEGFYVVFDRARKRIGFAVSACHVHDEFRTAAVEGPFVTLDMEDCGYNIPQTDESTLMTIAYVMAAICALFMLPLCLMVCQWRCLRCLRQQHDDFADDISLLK

SMILES | inhibition (Beta-secretase 1 [1]) | inhibition (Beta-secretase 1 [2]) | IC50 (Beta-secretase 1 [3])
CC(C)C[C@H](NC(=O)[C@@H](NC(=O)[C@@H](N)CCC(=O)O)C(C)C)C(=O)N[C@@H](Cc1ccccc1)[C@@H](O)C(=O)Nc1cccc(O)c1 | 54% | – | –
CC(C)C[C@H](NC(=O)[C@@H](NC(=O)[C@@H](N)CCC(=O)O)C(C)C)C(=O)N[C@@H](Cc1ccccc1)[C@@H](O)C(=O)Nc1ccccc1O | 60% | – | –
CC(C)C[C@H](NC(=O)[C@@H](NC(=O)[C@@H](N)CCC(=O)O)C(C)C)C(=O)N[C@@H](Cc1ccccc1)[C@@H](O)C(=O)Nc1cc([N+](=O)[O-])cc([N+](=O)[O-])c1 | 60% | – | –
CC(C)C[C@H](NC(=O)[C@@H](NC(=O)[C@@H](N)CCC(=O)O)C(C)C)C(=O)N[C@@H](Cc1ccccc1)[C@@H](O)C(=O)Nc1cccc([N+](=O)[O-])c1 | 71% | – | –
CC(C)C[C@H](NC(=O)[C@@H](NC(=O)[C@@H](N)CNC(=O)c1nnn[nH]1)C(C)C)C(=O)N[C@@H](Cc1ccccc1)[C@@H](O)C(=O)NS(=O)(=O)C(F)(F)F | – | – | 0.0299 µM
CC(C)C[C@H](NC(=O)[C@@H](NC(=O)[C@@H](N)CNC(=O)c1nn[nH]n1)C(C)C)C(=O)N[C@@H](Cc1ccccc1)[C@@H](O)C(=O)Nc1cccc(OC(F)(F)F)c1 | 93% | 72% | –
CC(C)C[C@H](NC(=O)[C@@H](NC(=O)[C@@H](N)CCC(=O)O)C(C)C)C(=O)N[C@@H](Cc1ccccc1)[C@@H](O)C(=O)Nc1cccc(C(=O)C(F)(F)F)c1 | 51% | – | –
CC(C)C[C@H](NC(=O)[C@@H](NC(=O)[C@@H](N)CNC(=O)c1nn[nH]n1)C(C)C)C(=O)N[C@@H](Cc1ccccc1)[C@@H](O)C(=O)Nc1cccc([N+](=O)[O-])c1 | 96% | 70% | –
CC(C)C[C@H](NC(=O)[C@@H](NC(=O)[C@@H](N)CNC(=O)c1nnn[nH]1)C(C)C)C(=O)N[C@@H](Cc1ccccc1)[C@@H](O)C(=O)Nc1cc(Cl)cc(Cl)c1 | – | – | 0.014 µM

Second part, led by results:

inhibition (Beta-secretase 1 [1]) | inhibition (Beta-secretase 1 [2]) | SMILES | IC50 (Beta-secretase 1 [3])
53% | – | CC(C)C[C@H](NC(=O)[C@@H](NC(=O)[C@@H](N)CCC(=O)O)C(C)C)C(=O)N[C@@H](Cc1ccccc1)[C@@H](O)C(=O)Nc1ccccc1 | –
96% | 75% | CC(C)C[C@H](NC(=O)[C@@H](NC(=O)[C@@H](N)CNC(=O)c1nn[nH]n1)C(C)C)C(=O)N[C@@H](Cc1ccccc1)[C@@H](O)C(=O)Nc1cc([N+](=O)[O-])cc([N+](=O)[O-])c1 | –
66% | – | CCOC(=O)c1sc(NC(=O)[C@H](O)[C@H](Cc2ccccc2)NC(=O)[C@H](CC(C)C)NC(=O)[C@@H](NC(=O)[C@@H](N)CCC(=O)O)C(C)C)nc1C | –
95% | 68% | CC(C)C[C@H](NC(=O)[C@@H](NC(=O)[C@@H](N)CNC(=O)c1nn[nH]n1)C(C)C)C(=O)N[C@@H](Cc1ccccc1)[C@@H](O)C(=O)Nc1cc(C(F)(F)F)cc(C(F)(F)F)c1 | –
92% | 57% | CC(C)C[C@H](NC(=O)[C@@H](NC(=O)[C@@H](N)CNC(=O)c1nn[nH]n1)C(C)C)C(=O)N[C@@H](Cc1ccccc1)[C@@H](O)C(=O)Nc1cc(Br)cc(C(F)(F)F)c1 | –
78% | – | CC(C)C[C@H](NC(=O)[C@@H](NC(=O)[C@@H](N)CCC(=O)O)C(C)C)C(=O)N[C@@H](Cc1ccccc1)[C@@H](O)C(=O)Nc1cc(Cl)cc(Cl)c1 | –
99% | 84% | CC(C)C[C@H](NC(=O)[C@@H](NC(=O)[C@@H](N)CNC(=O)c1nn[nH]n1)C(C)C)C(=O)N[C@@H](Cc1ccccc1)[C@@H](O)C(=O)Nc1cc(Cl)cc(Cl)c1 | –
98% | 81% | CC(C)C[C@H](NC(=O)[C@@H](NC(=O)[C@@H](N)CNC(=O)c1nn[nH]n1)C(C)C)C(=O)N[C@@H](Cc1ccccc1)[C@@H](O)C(=O)NS(=O)(=O)C(F)(F)F | –
86% | – | CC(C)C[C@H](NC(=O)[C@@H](NC(=O)[C@@H](N)CCC(=O)O)C(C)C)C(=O)N[C@@H](Cc1ccccc1)[C@@H](O)C(=O)Nc1cccc(C(=O)NS(=O)(=O)C(F)(F)F)c1 | –
74% | – | CC(C)C[C@H](NC(=O)[C@@H](NC(=O)[C@@H](N)CCC(=O)O)C(C)C)C(=O)N[C@@H](Cc1ccccc1)[C@@H](O)C(=O)Nc1cc(C(F)(F)F)cc(C(F)(F)F)c1 | –
80% | – | CC(C)C[C@H](NC(=O)[C@@H](NC(=O)[C@@H](N)CCC(=O)O)C(C)C)C(=O)N[C@@H](Cc1ccccc1)[C@@H](O)C(=O)Nc1cc(Cl)c(O)c(Cl)c1 | –
94% | – | Cc1nc(NC(=O)[C@H](O)[C@H](Cc2ccccc2)NC(=O)[C@H](CC(C)C)NC(=O)[C@@H](NC(=O)[C@@H](N)CCC(=O)O)C(C)C)sc1C(=O)O | –
